Values of other authors, collected in paper PMC9798770 (ACS Omega, 2022).

Test system: SARS-CoV-2

Structure (SMILES)	EC50 (read-out: EC50, antiviral activity) [µM]	antiviral activity compared with GRL0617
Cc1ccc(N)cc1C(=O)N[C@H](C)c1cccc2ccccc12 [GRL0617]	~20	
C[C@H](c1cccc2ccccc12)N(C)Cc1ccc(O)cc1 [Jun9-72-2]		higher
